Results: ChEMBL document CHEMBL1141965, “Preparation of human Melanocortin-4 receptor agonist libraries: linear peptides X-Y-DPhe7-Arg8-Trp(or 2-Nal)9-Z-NH2” (Bioorg Med Chem Lett, 2005)
Non-standard residues stand in square brackets, D forms with d. Residues, ends and D or L forms follow the SMILES beside them. ξ: configuration not given here. *: point of attachment. Ac6c(4-Ph-cis-to-N) = N[C@]1(C(=O)O)CC[C@H](c2ccccc2)CC1; ξAtc(5-Br) = NC1(C(=O)O)CCc2c(Br)cccc2C1; Pentanoyl = CCCCC(=O)*

How the values were obtained:
Melanocortin receptor 4 [1] = target: T1, Melanocortin receptor 4 (Homo sapiens, UniProt P32245); experiment: Agonist activity in HEK293 cells transfected with human MC4R by cAMP accumulation; assay type: functional, cell-based
T1 sequence (P32245 whole entry): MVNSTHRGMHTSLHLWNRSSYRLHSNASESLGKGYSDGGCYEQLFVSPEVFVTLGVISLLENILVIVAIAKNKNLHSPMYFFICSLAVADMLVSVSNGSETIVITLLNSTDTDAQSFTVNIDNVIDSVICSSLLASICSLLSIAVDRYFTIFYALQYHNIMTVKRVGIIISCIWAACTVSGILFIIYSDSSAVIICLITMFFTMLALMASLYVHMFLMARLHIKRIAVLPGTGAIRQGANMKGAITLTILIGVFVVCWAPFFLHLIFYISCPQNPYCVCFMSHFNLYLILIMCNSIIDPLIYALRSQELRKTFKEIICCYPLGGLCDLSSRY

[2] = target: T2, Melanocyte-stimulating hormone receptor (Homo sapiens, UniProt Q01726); experiment: Agonist activity at human MC1R at 10 uM; assay type: functional
Target sequence in this assay (Q01726 whole entry, looked up): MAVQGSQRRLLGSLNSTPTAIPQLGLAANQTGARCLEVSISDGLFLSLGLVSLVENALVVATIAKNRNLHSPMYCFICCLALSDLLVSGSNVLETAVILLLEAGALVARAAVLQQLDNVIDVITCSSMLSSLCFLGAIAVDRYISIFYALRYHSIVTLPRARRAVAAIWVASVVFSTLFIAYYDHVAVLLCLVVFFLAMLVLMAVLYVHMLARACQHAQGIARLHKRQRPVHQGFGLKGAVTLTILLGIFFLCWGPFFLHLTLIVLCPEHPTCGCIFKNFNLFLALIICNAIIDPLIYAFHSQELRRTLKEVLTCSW

[3] = target: T2, Melanocyte-stimulating hormone receptor; experiment: Agonist activity in HEK293 cells transfected with human MC1R by cAMP accumulation; assay type: functional, cell-based
Target sequence in this assay (Q01726 whole entry): as the sequence (Q01726 whole entry, looked up) above

[4] = target: T2, Melanocyte-stimulating hormone receptor; experiment: Agonist activity at human MC1R at 50 uM; assay type: functional
Target sequence in this assay (Q01726 whole entry, looked up): as above

Melanocortin receptor 4 [5] = target: T1, Melanocortin receptor 4; experiment: Agonist activity at human MC4R at 100 nM; assay type: functional
[6] = target: T2, Melanocyte-stimulating hormone receptor; experiment: Agonist activity at human MC1R at 100 nM; assay type: functional
Target sequence in this assay (Q01726 whole entry, looked up): as above

SMILES	EC50 (Melanocortin receptor 4 [1])	Activity [2]	further results
C[C@H](NC(=O)[C@H](Cc1c[nH]c2ccccc12)NC(=O)[C@H](CCCN=C(N)N)NC(=O)[C@@H](Cc1ccccc1)NC(=O)[C@]1(NC(=O)Cc2ccccc2)CC[C@@H](c2ccccc2)CC1)C(N)=O	3 nM	30%	
CCCCC(=O)NC1(C(=O)N[C@H](Cc2ccccc2)C(=O)N[C@@H](CCCN=C(N)N)C(=O)N[C@@H](Cc2ccc3ccccc3c2)C(=O)NCC(N)=O)CCc2c(Br)cccc2C1 (some centres undefined)	200 nM		EC50 [3]: 2900 nM
CCCC(=O)N[C@]1(C(=O)N[C@H](Cc2ccccc2)C(=O)N[C@@H](CCCN=C(N)N)C(=O)N[C@@H](Cc2ccc3ccccc3c2)C(=O)Nc2ccccc2C(N)=O)CC[C@H](c2ccccc2)CC1	39 nM		
CCCC(=O)N[C@]1(C(=O)N[C@H](Cc2ccccc2)C(=O)N[C@@H](CCCN=C(N)N)C(=O)N[C@@H](Cc2ccc3ccccc3c2)C(=O)NCc2cccc(C(N)=O)c2)CC[C@H](c2ccccc2)CC1	110 nM		
CCCCNC(=O)N[C@]1(C(=O)N[C@H](Cc2ccccc2)C(=O)N[C@@H](CCCN=C(N)N)C(=O)N[C@@H](Cc2c[nH]c3ccccc23)C(=O)NCc2cccc(C(N)=O)c2)CC[C@H](c2ccccc2)CC1	2 nM	60%	
N=C(N)NCCC[C@H](NC(=O)[C@@H](Cc1ccccc1)NC(=O)[C@]1(NC(=O)Cc2ccccc2)CC[C@@H](c2ccccc2)CC1)C(=O)N[C@@H](Cc1c[nH]c2ccccc12)C(=O)NCc1ccc(C(N)=O)cc1	1 nM	70%	
CCCCC(=O)N[C@]1(C(=O)N[C@H](Cc2ccccc2)C(=O)N[C@@H](CCCN=C(N)N)C(=O)N[C@@H](Cc2c[nH]c3ccccc23)C(=O)NCC(N)=O)CC[C@H](c2ccccc2)CC1 (Pentanoyl-[Ac6c(4-Ph-cis-to-N)][dF]RWG-NH2)			Activity [4]: 25%
N=C(N)NCCC[C@H](NC(=O)[C@@H](Cc1ccccc1)NC(=O)C1(NC(=O)Cc2ccccc2)CCc2c(Br)cccc2C1)C(=O)N[C@@H](Cc1c[nH]c2ccccc12)C(=O)Nc1ccccc1C(N)=O (some centres undefined)	11 nM	50%	
CCCC(=O)N[C@]1(C(=O)N[C@H](Cc2ccccc2)C(=O)N[C@@H](CCCN=C(N)N)C(=O)N[C@@H](Cc2ccc3ccccc3c2)C(=O)NCC(N)=O)CC[C@H](c2ccccc2)CC1	44 nM	25%	Activity (Melanocortin receptor 4 [5]): > 30%
CCCCC(=O)NC1(C(=O)N[C@H](Cc2ccccc2)C(=O)N[C@@H](CCCN=C(N)N)C(=O)N[C@@H](Cc2c[nH]c3ccccc23)C(=O)NCC(N)=O)CCc2c(Br)cccc2C1 (some centres undefined) (Pentanoyl-[ξAtc(5-Br)][dF]RWG-NH2)			Activity [4]: 50%
CCCCNC(=O)N[C@]1(C(=O)N[C@H](Cc2ccccc2)C(=O)N[C@@H](CCCN=C(N)N)C(=O)N[C@@H](Cc2c[nH]c3ccccc23)C(=O)NCC(N)=O)CC[C@H](c2ccccc2)CC1	2 nM	55%	
CCCC(=O)NC1(C(=O)N[C@H](Cc2ccccc2)C(=O)N[C@@H](CCCN=C(N)N)C(=O)NC(Cc2ccc3ccccc3c2)C(=O)NCCC(N)=O)CCc2c(Br)cccc2C1 (some centres undefined)			Activity (Melanocortin receptor 4 [5]): 32%; Activity [6]: 40%
NC(=O)CCNC(=O)[C@H](Cc1c[nH]c2ccccc12)NC(=O)[C@H](CCCN=C(N)N)NC(=O)[C@@H](Cc1ccccc1)NC(=O)[C@]1(NC(=O)Cc2ccccc2)CC[C@@H](c2ccccc2)CC1	5 nM	45%	
CCCC(=O)NC1(C(=O)N[C@H](Cc2ccccc2)C(=O)N[C@@H](CCCN=C(N)N)C(=O)NC(Cc2ccc3ccccc3c2)C(=O)Nc2ccccc2C(N)=O)CCc2c(Br)cccc2C1 (some centres undefined)			Activity [4]: 60%; Activity (Melanocortin receptor 4 [5]): > 30%
CCCC(=O)N[C@]1(C(=O)N[C@H](Cc2ccccc2)C(=O)N[C@@H](CCCN=C(N)N)C(=O)N[C@@H](Cc2ccc3ccccc3c2)C(=O)NCCC(N)=O)CC[C@H](c2ccccc2)CC1	90 nM		
CCCC(=O)N[C@]1(C(=O)N[C@H](Cc2ccccc2)C(=O)N[C@@H](CCCN=C(N)N)C(=O)NC(Cc2ccc3ccccc3c2)C(=O)N[C@@H](C)C(N)=O)CC[C@H](c2ccccc2)CC1 (some centres undefined)		25%	EC50 (Melanocortin receptor 4 [1]; hek293): 220 nM; Activity (Melanocortin receptor 4 [5]): > 30%
CCCC(=O)N[C@]1(C(=O)N[C@H](Cc2ccccc2)C(=O)N[C@@H](CCCN=C(N)N)C(=O)N[C@@H](Cc2ccc3ccccc3c2)C(=O)NCc2ccc(C(N)=O)cc2)CC[C@H](c2ccccc2)CC1	85 nM		
CCCC(=O)N[C@]1(C(=O)N[C@H](Cc2ccccc2)C(=O)N[C@@H](CCCN=C(N)N)C(=O)N[C@@H](Cc2c[nH]c3ccccc23)C(=O)NCc2ccc(C(N)=O)cc2)CC[C@H](c2ccccc2)CC1	1 nM	50%	
CCCC(=O)NC1(C(=O)N[C@H](Cc2ccccc2)C(=O)N[C@@H](CCCN=C(N)N)C(=O)NC(Cc2ccc3ccccc3c2)C(=O)NCC(N)=O)CCc2c(Br)cccc2C1 (some centres undefined)			Activity (Melanocortin receptor 4 [5]): 30%; Activity [6]: 26%

SMILES	EC50 (Melanocortin receptor 4 [1])	Activity [2]	further results
CCCCC(=O)N[C@]1(C(=O)N[C@H](Cc2ccccc2)C(=O)N[C@@H](CCCN=C(N)N)C(=O)NC(Cc2ccc3ccccc3c2)C(=O)NCC(N)=O)CC[C@H](c2ccccc2)CC1 (some centres undefined)			Activity [4]: 60%
CCCC(=O)N[C@]1(C(=O)N[C@H](Cc2ccccc2)C(=O)N[C@@H](CCCN=C(N)N)C(=O)N[C@@H](Cc2c[nH]c3ccccc23)C(=O)Nc2ccccc2C(N)=O)CC[C@H](c2ccccc2)CC1	2 nM	60%	
N=C(N)NCCC[C@H](NC(=O)[C@@H](Cc1ccccc1)NC(=O)[C@]1(NC(=O)Cc2ccccc2)CC[C@@H](c2ccccc2)CC1)C(=O)N[C@@H](Cc1c[nH]c2ccccc12)C(=O)NCc1cccc(C(N)=O)c1	2 nM	60%	
CCCC(=O)NC1(C(=O)N[C@H](Cc2ccccc2)C(=O)N[C@@H](CCCN=C(N)N)C(=O)N[C@@H](Cc2ccc3ccccc3c2)C(=O)Nc2ccccc2C(N)=O)CCc2c(Br)cccc2C1 (some centres undefined)	72 nM		
N=C(N)NCCC[C@H](NC(=O)[C@@H](Cc1ccccc1)NC(=O)[C@]1(NC(=O)Cc2ccccc2)CC[C@@H](c2ccccc2)CC1)C(=O)N[C@@H](Cc1c[nH]c2ccccc12)C(=O)Nc1ccccc1C(N)=O	3 nM	75%	
CCCC(=O)N[C@]1(C(=O)N[C@H](Cc2ccccc2)C(=O)N[C@@H](CCCN=C(N)N)C(=O)N[C@@H](Cc2c[nH]c3ccccc23)C(=O)N[C@@H](C)C(N)=O)CC[C@H](c2ccccc2)CC1	3 nM		Activity [4]: 25%
CCCC(=O)N[C@]1(C(=O)N[C@H](Cc2ccccc2)C(=O)N[C@@H](CCCN=C(N)N)C(=O)NC(Cc2ccc3ccccc3c2)C(=O)NCc2ccc(C(N)=O)cc2)CC[C@H](c2ccccc2)CC1 (some centres undefined)			Activity [4]: 15%; Activity (Melanocortin receptor 4 [5]): > 30%
CCCC(=O)N[C@]1(C(=O)N[C@H](Cc2ccccc2)C(=O)N[C@@H](CCCN=C(N)N)C(=O)NC(Cc2ccc3ccccc3c2)C(=O)NCCC(N)=O)CC[C@H](c2ccccc2)CC1 (some centres undefined)		25%	Activity (Melanocortin receptor 4 [5]): > 30%
CCCCNC(=O)NC1(C(=O)N[C@H](Cc2ccccc2)C(=O)N[C@@H](CCCN=C(N)N)C(=O)N[C@@H](Cc2c[nH]c3ccccc23)C(=O)Nc2ccccc2C(N)=O)CCc2c(Br)cccc2C1 (some centres undefined)	15 nM	50%	
CCCCNC(=O)N[C@]1(C(=O)N[C@H](Cc2ccccc2)C(=O)N[C@@H](CCCN=C(N)N)C(=O)N[C@@H](Cc2c[nH]c3ccccc23)C(=O)N[C@@H](C)C(N)=O)CC[C@H](c2ccccc2)CC1	2 nM		Activity [4]: 25%
CCCC(=O)N[C@]1(C(=O)N[C@H](Cc2ccccc2)C(=O)N[C@@H](CCCN=C(N)N)C(=O)NC(Cc2ccc3ccccc3c2)C(=O)Nc2ccccc2C(N)=O)CC[C@H](c2ccccc2)CC1 (some centres undefined)		50%	Activity (Melanocortin receptor 4 [5]): > 30%
CCCCNC(=O)N[C@]1(C(=O)N[C@H](Cc2ccccc2)C(=O)N[C@@H](CCCN=C(N)N)C(=O)N[C@@H](Cc2c[nH]c3ccccc23)C(=O)NCCC(N)=O)CC[C@H](c2ccccc2)CC1	2 nM		Activity [4]: 50%
CCCC(=O)NC1(C(=O)N[C@H](Cc2ccccc2)C(=O)N[C@@H](CCCN=C(N)N)C(=O)N[C@@H](Cc2c[nH]c3ccccc23)C(=O)Nc2ccccc2C(N)=O)CCc2c(Br)cccc2C1 (some centres undefined)	15 nM		Activity [4]: 65%
CCCCC(=O)N[C@]1(C(=O)N[C@H](Cc2ccccc2)C(=O)N[C@@H](CCCN=C(N)N)C(=O)N[C@@H](Cc2ccc3ccccc3c2)C(=O)NCC(N)=O)CC[C@H](c2ccccc2)CC1	50 nM		
CCCC(=O)N[C@]1(C(=O)N[C@H](Cc2ccccc2)C(=O)N[C@@H](CCCN=C(N)N)C(=O)N[C@@H](Cc2c[nH]c3ccccc23)C(=O)NCCC(N)=O)CC[C@H](c2ccccc2)CC1	5 nM		Activity [4]: 50%
CCCCNC(=O)N[C@]1(C(=O)N[C@H](Cc2ccccc2)C(=O)N[C@@H](CCCN=C(N)N)C(=O)N[C@@H](Cc2c[nH]c3ccccc23)C(=O)Nc2ccccc2C(N)=O)CC[C@H](c2ccccc2)CC1	2 nM	75%	
CCCC(=O)N[C@]1(C(=O)N[C@H](Cc2ccccc2)C(=O)N[C@@H](CCCN=C(N)N)C(=O)NC(Cc2ccc3ccccc3c2)C(=O)NCc2cccc(C(N)=O)c2)CC[C@H](c2ccccc2)CC1 (some centres undefined)		25%	Activity (Melanocortin receptor 4 [5]): > 30%
NC(=O)CNC(=O)[C@H](Cc1c[nH]c2ccccc12)NC(=O)[C@H](CCCN=C(N)N)NC(=O)[C@@H](Cc1ccccc1)NC(=O)[C@]1(NC(=O)Cc2ccccc2)CC[C@@H](c2ccccc2)CC1	2 nM	30%	
CCCC(=O)N[C@]1(C(=O)N[C@H](Cc2ccccc2)C(=O)N[C@@H](CCCN=C(N)N)C(=O)N[C@@H](Cc2c[nH]c3ccccc23)C(=O)NCc2cccc(C(N)=O)c2)CC[C@H](c2ccccc2)CC1	2 nM		Activity [4]: 50%
